Source: patent US20150164899A1, “INHIBITION OF ADAPTOR ASSOCIATED KINASE 1 FOR THE TREATMENT OF PAIN” (priority 2012, published 2015)
Where two headings read alike, the source gives them in different places.

How the values were obtained:
[1] = molecular target: T1, AAK1 (full-length human protein) (Homo sapiens, UniProt Q2M2I8); assay: P81 filter plate assay; assay type: biochemical
T1 construct: NP_055726.2
Protocol: Compounds were serially diluted into a Labcyte LDV plate (Labcyte, cat# LP-0200) using a Mutiprobe (PerkinElmer) and Biomek FX (Beckman Coulter) so that the highest compound concentration was at 96 μM. Compounds were then pinged (75 nL per well) into a Greiner 384-well reaction plate (Greiner, #781076) using an ECHO 550 Liquid Handler (Labcyte). A total of 12 μl reaction buffer (IMAP buffer containing Tween and DTT, from Molecular Devices) was then added to each well of columns 1 and 13 for the negative controls and 12 μl of 2×AAK1 (0.2 nM full-length human protein, NCBI accession no. NP_055726.2) was added to the remaining wells. Enzyme was then pre-incubated with compound for 10 minutes at RT. Reactions were initiated upon Minitrak (PerkinElmer) addition of 12 μl substrate mix containing 2× Mu2 (0.2 μM, full length human protein), 2× cold ATP (2 μM), and 1.3 μCi of hot ^33P-ATP. Reactions proceeded for one hour at RT. Meanwhile, Millipore 384-well P81 filter plates (Millipore, catalog # MZPHN0W10) were placed on a plate washer (Zoom Z W, from Titertek) and pre-wet with 50 μl 1% phosphoric acid. Kinase reactions were then stopped upon addition of 24 μl of 2% phosphoric acid to each well and the Minitrak was then used to transfer 40 μl from each well into the pre-wet Millipore 384-well P81 filter plates. Reaction mixtures were incubated for 10 minutes at RT in the P81 plates, followed by washing five times with 100 μl/well of 1% phosphoric acid using the Zoom filter washer. The bottom of each filter plate was sealed followed by addition of 20 μl Microscint 40 to each well, sealing the top of the plates with Flashplate cover, and then waiting one hour until reading on the TopCount (PerkinElmer).

[2] = molecular target: T2, AAK1 (full length human) in transfected HEK293F cells (Homo sapiens, UniProt Q2M2I8); assay: HEK281 cell-based assay (phospho-mu2 Western blot); details: HEK281 cell-based assay, read-out: CBA IC50
T2 construct: expressed in transfected cells; host or cells: HEK293F
Protocol: HEK293F cells were cultured in media containing DMEM (Gibco, cat. #11965), 10% FBS (SAFC Biosciences, cat. #12103C), 1×GPS (glutamine, penicillin and streptomycin). On day one, cells were plated on a 10 cm dish so that they are ˜80% confluent at time of transfection. Roughly 12 million cells were in a 10 cm dish at time of transfection. On day two, each dish was transfected with 48 ug DNA and 144 ul Lipofectamine 2000 (Invitrogen, cat.#11668-019). The DNA was comprised of a mixture (per 10 cm dish) containing 3 ug AAK1/HA/pIRES (full length human, NCBI accession no. NP_055726.2), 45 μg Flag/AP2MI/pcDNA (full length human), and 1.5 ml OPTI-MEM. The Lipofectamine 2000 is made up of a mixture (per 10 cm dish) containing 144 μl Lipofectamine 2000 and 1.5 ml OPTI-MEM. Each mixture was transferred to individual 15 ml tubes and incubated at RT for 5 minutes, and then the two mixes were combined and incubated at RT for 20 minutes. Growth media was then aspirated from each 10 cm plate and replaced with 10 ml of DMEM+10% FBS (no GPS). Finally, 3 ml DNA/Lipofectamine mix was added to each 10 cm dish and mix gently followed by incubate of plate overnight at 37° C. and 5% CO2.
On day three, compounds were diluted in 100% DMSO at 1000× final concentration, followed by 3-fold serial dilutions for a total of 5 concentrations tested. Four compounds were tested per 10 cm dish. One ul of each compound dilution was then pipetted into a deep-well, 96-well plate, followed by addition of 500 μl DMEM+0.5% FBS into each well for a 2× final concentration of each compound. Cells were resuspended in a 10 cm dish by simple pipetting (HEK293 cells come off the plate that easy at this point) and then transferred to a 50 ml conical tube and pelleted by centrifugation at 1000 rpm for 5 min. Cell pellets were then resuspended in 2.75 ml DMEM+0.5% FBS per 10 cm dish and 100 μl of cell suspension transferred into each well of 96-well TC plate. Finally, 100 μl of 2× compound diluted in DMEM+0.5% FBS was then added into wells containing cell suspension for a 1× final concentration. Plates were then incubated at 37° C. and 5% CO2 for 3 hours followed by transferring of cell suspensions from each well into 12-tube PCR strips. The PCR strips were spun in a tip rack at 1000 rpm for 5 minutes to pellet cells and media was then removed by pipetting without disturbing the cell pellet.
To prepare for Western Blot analysis, cell pellets were resuspend in 40 ul 1×LDS-PAGE sample buffer (Invitrogen, cat.# NP0008)+2× Halt phophatase and protease inhibitor cocktail (Thermo Scientific, cat.#1861284), followed by sonicating each with microtip sonicator set at 5 for 8-10 seconds. Five ul of 10× NuPage Sample Reducing Agent (with […]) was to each sample followed by heat denaturing at 70 C. for 10 min on PCR machine. A total of 10 μl per sample was loaded into each lane of a 4-20% Tris-Glycine Criterion 26-well gel (Biorad, cat.#345-0034) for the phospho-mu2 blot and 10 μl per lane in a 4-12% Bis-Tris (+MES buffer) NuPAGE 26-well gel (Invitrogen, cat.# WG1403BX10) for the mu2 blot. For controls, 2 ng of phospho-mu2 or 20 ng mu2/Flag proteins were loaded in the last well of each gel. After SDS-PAGE, samples on each gel were transferred to PVDF membrane using an iBlot and membranes were blocked for one hour in TBST+5% milk, followed by wash 3× for 5-10 min with TBST. Criterion gels were probed with rabbit anti-phospho-mu2 (1:5000; a rabbit polyclonal antibody produced by New England Peptide and affinity purified at Lexicon) in TBST+5% BSA, whereas, NuPAGE gels were probed with mouse anti-Flag (1:500; Sigma, cat.# F1804) in TBST+5% milk, and these primary antibodies were incubated overnight at 4° C. on a rocker.

[3] = pyrazolo[1,5-a]pyrimidine-based inhibitors
[4] = Table 1 imidazo[1,2-b]pyridazines

T2 sequence (Q2M2I8 1-863 isoform Q2M2I8-2): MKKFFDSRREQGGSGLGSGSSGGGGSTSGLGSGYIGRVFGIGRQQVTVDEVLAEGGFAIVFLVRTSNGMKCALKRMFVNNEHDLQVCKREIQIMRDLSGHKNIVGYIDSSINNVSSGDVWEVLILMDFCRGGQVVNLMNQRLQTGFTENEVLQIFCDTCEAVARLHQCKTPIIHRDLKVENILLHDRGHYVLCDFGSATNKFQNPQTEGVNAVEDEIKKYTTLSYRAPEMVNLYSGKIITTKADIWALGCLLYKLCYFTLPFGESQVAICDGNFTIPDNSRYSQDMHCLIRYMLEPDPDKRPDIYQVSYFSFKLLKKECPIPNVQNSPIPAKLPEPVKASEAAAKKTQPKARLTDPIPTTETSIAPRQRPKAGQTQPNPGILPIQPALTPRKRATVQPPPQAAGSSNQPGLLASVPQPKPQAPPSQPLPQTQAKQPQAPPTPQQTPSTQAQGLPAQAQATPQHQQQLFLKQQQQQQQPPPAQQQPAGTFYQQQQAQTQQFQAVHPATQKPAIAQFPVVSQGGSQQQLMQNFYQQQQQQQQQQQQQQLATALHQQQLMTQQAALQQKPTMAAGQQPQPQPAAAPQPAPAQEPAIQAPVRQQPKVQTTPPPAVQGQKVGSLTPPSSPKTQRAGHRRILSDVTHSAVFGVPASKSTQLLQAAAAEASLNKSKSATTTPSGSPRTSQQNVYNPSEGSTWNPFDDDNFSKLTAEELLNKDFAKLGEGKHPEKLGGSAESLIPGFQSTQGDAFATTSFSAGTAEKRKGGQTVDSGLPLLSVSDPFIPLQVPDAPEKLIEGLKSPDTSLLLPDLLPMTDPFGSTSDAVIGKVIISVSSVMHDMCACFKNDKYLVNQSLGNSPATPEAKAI
T1 sequence (Q2M2I8 1-863 isoform Q2M2I8-2): as above

Row | SMILES | IC50 [1, 3] [µM] | IC50 [2, 3] [µM] | IC50 [1, 4] [µM] | IC50 [2, 4] [µM]
1 | COC(=O)N1CCN(c2ccn3ncc(-c4cccnc4OC)c3n2)CC1 | ≤ 0.1 | ≤ 0.1 |  | 
2 | COc1ncccc1-c1cnn2ccc(N3CCN(C(=O)N4CCCC4)CC3)nc12 | ≤ 0.01 | ≤ 0.1 |  | 
3 | CC(C)OC(=O)N1CCN(c2ccn3ncc(-c4ccccn4)c3n2)CC1 | ≤ 0.01 | ≤ 0.1 |  | 
4 | CCCC(=O)N1CCC[C@H]1CNc1ccn2ncc(-c3ccccc3OC)c2n1 | ≤ 0.01 | ≤ 0.1 |  | 
5 | COc1ccc(-c2cnn3ccc(NC[C@@H]4CCCN4C(=O)OC(C)(C)C)nc23)cc1 | ≤ 0.01 | ≤ 0.01 |  | 
6 | CCOC(=O)N1CCN(c2ccn3ncc(-c4cccnc4OCC)c3n2)CC1 | ≤ 0.01 | ≤ 0.01 |  | 
7 | COCCOC(=O)N1CCN(c2ccn3ncc(-c4ccccc4OC)c3n2)CC1 | ≤ 0.01 |  |  | 
8 | COc1ncccc1-c1cnn2ccc(N3CCN(C(=O)OC(C)C)CC3=O)nc12 | ≤ 0.01 | ≤ 0.01 |  | 
9 | CC(C)OC(=O)N1CCN(c2ccn3ncc(-c4cnccn4)c3n2)CC1 | ≤ 0.1 |  |  | 
10 | COc1ccccc1-c1cnn2ccc(NC[C@@H]3CCCN3C(=O)CC(F)(F)F)nc12 | ≤ 0.01 | ≤ 0.1 |  | 
11 | CC(C)Cn1cc(-c2cnn3ccc(N4CCN(C(=O)OC(C)C)CC4)nc23)cn1 | ≤ 0.1 |  |  | 
12 | CN(C(=O)N1CCCC1)[C@H]1CCN(c2ccn3ncc(Br)c3n2)C1 | ≤ 0.1 |  |  | 
13 | COc1ccccc1-c1cnc2ccc(NC[C@@H]3CCC(=O)N3CCC(C)(C)C)nn12 |  |  | ≤ 0.01 | ≤ 1
14 | COc1ccc(-c2cnn3ccc(N4CCN(C(=O)OC(C)C)CC4)nc23)cn1 | ≤ 0.01 | ≤ 1 |  | 
15 | CC(C)OC(=O)N1CCN(c2ccn3ncc(-c4cccnc4O)c3n2)CC1 | ≤ 0.01 | ≤ 0.1 |  | 
16 | COc1ncccc1-c1cnn2ccc(C3=CCN(C(=O)OC(C)C)CC3)nc12 | ≤ 0.01 | ≤ 0.01 |  | 
17 | CN(C(=O)CC1CC1)[C@H]1CCN(c2ccn3ncc(-c4ccccn4)c3n2)C1 | ≤ 0.1 |  |  | 
18 | CCCC(=O)N(C)[C@H]1CCN(c2ccn3ncc(-c4cccnc4OC)c3n2)C1 | ≤ 0.01 | ≤ 1 |  | 
19 | COc1ncccc1-c1cnn2ccc(N3CCN(C(=O)OCCF)CC3)nc12 | ≤ 0.01 | ≤ 0.01 |  | 
20 | CC(C)OC(=O)N1CCN(c2ccn3ncc(-c4ccncc4)c3n2)CC1 | ≤ 0.01 | ≤ 0.1 |  | 
21 | COc1ccc(-c2cnn3ccc(N4CCN(C(=O)OC(C)C)CC4)nc23)nc1 | ≤ 0.01 | ≤ 0.01 |  | 
22 | CN(C(=O)CC(F)(F)F)[C@H]1CCN(c2ccn3ncc(-c4ccccn4)c3n2)C1 | ≤ 0.01 | ≤ 0.01 |  | 
23 | COc1ncccc1-c1cnn2ccc(N3CC[C@H](N(C)C(=O)CC(F)(F)F)C3)nc12 | ≤ 0.01 | ≤ 0.01 |  | 
24 | CC(C)NC(=O)c1cnn2ccc(N3CCN(C(=O)OC(C)C)CC3)nc12 | ≤ 1 |  |  | 
25 | CC(C)OC(=O)N1CCN(c2ccn3ncc(-c4cncnc4)c3n2)CC1 | ≤ 0.1 |  |  | 
26 | CN(C(=O)CC(F)(F)F)[C@H]1CCN(c2ccn3ncc(Br)c3n2)C1 | ≤ 0.1 |  |  | 
27 | COc1ncccc1-c1cnn2ccc(N3CCN(C(=O)NC(C)(C)C)CC3)nc12 | ≤ 0.01 | ≤ 0.1 |  | 
28 | CCCC(=O)N(C)[C@H]1CCN(c2ccn3ncc(-c4ccccn4)c3n2)C1 | ≤ 1 |  |  | 

Row | SMILES | IC50 [1, 3] [µM] | IC50 [2, 3] [µM] | IC50 [1, 4] [µM] | IC50 [2, 4] [µM]
29 | COc1cc(-c2cnn3ccc(N4CCN(C(=O)OC(C)C)CC4)nc23)c(OC)nn1 | ≤ 0.01 | ≤ 0.01 |  | 
30 | CC(C)OC(=O)N1CCN(c2ccn3nccc3n2)CC1 | ≤ 0.01 |  |  | 
31 | CNC(=O)c1cnn2ccc(N3CCN(C(=O)OC(C)C)CC3)nc12 | ≤ 0.1 |  |  | 
32 | CC(C)(C)OC(=O)N1CC=C(c2ccn3nccc3n2)CC1 | ≤ 0.1 |  |  | 
33 | COc1ncccc1-c1cnn2ccc(NC[C@@H]3CCC(=O)N3CCC(C)(C)C)nc12 | ≤ 0.01 | ≤ 0.1 |  | 
34 | COc1ncccc1-c1cnn2ccc(N(CCCC(F)(F)F)C(C)=O)nc12 | ≤ 1 |  |  | 
35 | CC(C)OC(=O)N1CCN(c2ccn3ncc(C(C)C)c3n2)CC1 | ≤ 0.1 |  |  | 
36 | CCOc1ccccc1-c1cnn2ccc(NC[C@@H]3CCC(=O)N3CCC(C)(C)C)nc12 | ≤ 0.01 | ≤ 0.1 |  | 
37 | COc1ncccc1-c1cnn2ccc(N3CCN(C(=O)OC4CCCC4)CC3)nc12 | ≤ 0.01 | ≤ 0.01 |  | 
38 | COc1ccncc1-c1cnn2ccc(N3CCN(C(=O)OC(C)C)CC3)nc12 | ≤ 0.01 | ≤ 0.1 |  | 
39 | COc1ncccc1-c1cnn2ccc(N3CCN(S(=O)(=O)CC(C)C)CC3)nc12 | ≤ 0.1 |  |  | 
40 | COc1ncccc1-c1cnn2ccc(N3CC(N(C)C(=O)OC(C)(C)C)C3)nc12 | ≤ 1 |  |  | 
41 | CCCC(=O)N(C)[C@H]1CCN(c2ccn3ncc(-c4ccccc4OC)c3n2)C1 | ≤ 0.01 | ≤ 1 |  | 
42 | COc1ccccc1-c1cnn2ccc(N3CC[C@H](N(C)C(=O)OC(C)C)C3)nc12 | ≤ 0.1 |  |  | 
43 | CC(C)OC(=O)N1CCN(c2ccn3ncc(-c4cccnc4)c3n2)CC1 | ≤ 0.01 |  |  | 
44 | CCOc1cccc(-c2cnn3ccc(N4CCN(C(=O)OC(C)C)CC4)nc23)c1 | ≤ 0.01 |  |  | 
45 | CCOC(=O)c1cnn2ccc(N3CCN(C(=O)OC(C)C)CC3)nc12 | ≤ 0.1 |  |  | 
46 | CCNC(=O)c1cnn2ccc(N3CCN(C(=O)OC(C)C)CC3)nc12 | ≤ 0.1 |  |  | 
47 | CC(C)(C)CCN1C(=O)CC[C@H]1CNc1ccn2ncc(-c3ccccc3)c2n1 | ≤ 0.01 |  |  | 
48 | COc1ncccc1-c1cnn2ccc(N3CCN(C(=O)OC(C)C)C(C)(C)C3)nc12 | ≤ 0.1 |  |  | 
49 | CC(C)OC(=O)N(C)[C@H]1CCN(c2ccn3ncc(-c4ccncc4)c3n2)C1 | ≤ 0.1 |  |  | 
50 | Cc1nn(C)c(C)c1-c1cnn2ccc(N3CCN(C(=O)OC(C)C)CC3)nc12 | ≤ 0.1 |  |  | 
51 | COc1ncccc1-c1cnn2ccc(N3CC(N(C)C(=O)OC(C)C)C3)nc12 | ≤ 0.1 |  |  | 
52 | COc1ccnc(-c2cnn3ccc(N4CCN(C(=O)OC(C)C)CC4)nc23)c1 | ≤ 0.01 |  |  | 
53 | CN(C(=O)N1CCCC1)[C@H]1CCN(c2ccc3ncc(-c4ccccn4)n3n2)C1 |  |  | ≤ 0.1 | 
54 | COc1ccccc1-c1cnn2ccc(N3CC[C@H](N(C)C(=O)CC(F)(F)F)C3)nc12 | ≤ 0.1 |  |  | 
55 | CC(C)OC(=O)N1CCN(c2ccn3ncc(-c4cnccc4F)c3n2)CC1 | ≤ 0.1 |  |  | 
